From ChEMBL document CHEMBL4725331, “An investigative study of antitumor properties of a novel thiazolo[4,5-d]pyrimidine small molecule revealing superior antitumor activity with CDK1 selectivity and potent pro-apoptotic properties” (Bioorg Med Chem, 2020)

How the values were obtained:
[1] = test system: K562; test: Antiproliferative activity against human K562 cells assessed as inhibition of cell growth at 10 uM measured after 48 hrs by SRB assay relative to control; assay type: functional
[2] = test system: EKVX; test: Antiproliferative activity against human EKVX cells assessed as inhibition of cell growth at 10 uM measured after 48 hrs by SRB assay relative to control; assay type: functional
[3] = test system: COLO 205; test: Antiproliferative activity against human COLO 205 cells assessed as inhibition of cell growth at 10 uM measured after 48 hrs by SRB assay relative to control; assay type: functional
[4] = test system: SNB-19; test: Antiproliferative activity against human SNB-19 cells assessed as inhibition of cell growth at 10 uM measured after 48 hrs by SRB assay relative to control; assay type: functional
[5] = test system: SK-MEL-2; test: Antiproliferative activity against human SK-MEL-2 cells assessed as inhibition of cell growth at 10 uM measured after 48 hrs by SRB assay relative to control; assay type: functional
[6] = test system: UACC-257; test: Antiproliferative activity against human UACC-257 cells assessed as inhibition of cell growth at 10 uM measured after 48 hrs by SRB assay relative to control; assay type: functional
[7] = test system: SK-OV-3; test: Antiproliferative activity against human SK-OV-3 cells assessed as inhibition of cell growth at 10 uM measured after 48 hrs by SRB assay relative to control; assay type: functional
[8] = test system: SN12C; test: Antiproliferative activity against human SN12C cells assessed as inhibition of cell growth at 10 uM measured after 48 hrs by SRB assay relative to control; assay type: functional
[9] = test system: Hs-578T; test: Antiproliferative activity against human Hs-578T cells assessed as inhibition of cell growth at 10 uM measured after 48 hrs by SRB assay relative to control; assay type: functional
[10] = test system: K562; test: Antiproliferative activity against human K562 cells assessed as inhibition of cell growth measured after 48 hrs by SRB assay; assay type: functional
[11] = test system: HOP-62; test: Antiproliferative activity against human HOP-62 cells assessed as inhibition of cell growth measured after 48 hrs by SRB assay; assay type: functional
[12] = test system: NCI-H460; test: Antiproliferative activity against human NCI-H460 cells assessed as inhibition of cell growth measured after 48 hrs by SRB assay; assay type: functional
[13] = test system: HCC 2998; test: Antiproliferative activity against human HCC 2998 cells assessed as inhibition of cell growth measured after 48 hrs by SRB assay; assay type: functional
[14] = test system: HCT-15; test: Antiproliferative activity against human HCT-15 cells assessed as inhibition of cell growth measured after 48 hrs by SRB assay; assay type: functional
[15] = test system: SF-539; test: Antiproliferative activity against human SF-539 cells assessed as inhibition of cell growth measured after 48 hrs by SRB assay; assay type: functional
[16] = test system: SNB-19; test: Antiproliferative activity against human SNB-19 cells assessed as inhibition of cell growth measured after 48 hrs by SRB assay; assay type: functional
[17] = test system: MDA-MB-435; test: Antiproliferative activity against human MDA-MB-435 cells assessed as inhibition of cell growth measured after 48 hrs by SRB assay; assay type: functional
[18] = test system: SK-MEL-2; test: Antiproliferative activity against human SK-MEL-2 cells assessed as inhibition of cell growth measured after 48 hrs by SRB assay; assay type: functional
[19] = test system: OVCAR-4; test: Antiproliferative activity against human OVCAR-4 cells assessed as inhibition of cell growth measured after 48 hrs by SRB assay; assay type: functional
[20] = test system: SK-OV-3; test: Antiproliferative activity against human SK-OV-3 cells assessed as inhibition of cell growth measured after 48 hrs by SRB assay; assay type: functional
[21] = test system: 786-0; test: Antiproliferative activity against human 786-0 cells assessed as inhibition of cell growth measured after 48 hrs by SRB assay; assay type: functional
[22] = test system: RXF 393; test: Antiproliferative activity against human RXF 393 cells assessed as inhibition of cell growth measured after 48 hrs by SRB assay; assay type: functional
[23] = test system: SN12C; test: Antiproliferative activity against human SN12C cells assessed as inhibition of cell growth measured after 48 hrs by SRB assay; assay type: functional
[24] = test system: TK-10; test: Antiproliferative activity against human TK-10 cells assessed as inhibition of cell growth measured after 48 hrs by SRB assay; assay type: functional
[25] = test system: MDA-MB-231; test: Antiproliferative activity against human MDA-MB-231 cells assessed as inhibition of cell growth measured after 48 hrs by SRB assay; assay type: functional
[26] = test system: MDA-MB-468; test: Antiproliferative activity against human MDA-MB-468 cells assessed as inhibition of cell growth measured after 48 hrs by SRB assay; assay type: functional
[27] = test system: T47D; test: Antiproliferative activity against human T47D cells assessed as inhibition of cell growth measured after 48 hrs by SRB assay; assay type: functional
[28] = test system: HCT-116; test: Cytotoxicity against human HCT-116 cells assessed as reduction in cell viability after 48 hrs by MTT assay; assay type: functional, cell-based; details: HCT-116, 48 h
[29] = test system: WI-38; test: Cell cycle arrest in human WI-38 cells assessed as accumulation in sub-G phase at IC50 concentration incubated for 48 hrs by propidium iodide staining based flow cytometry analysis (reference value: 1.35 %); details: wi-38, 48 h
[30] = molecular target: Cyclin-dependent kinase 1/cyclin B1 (Homo sapiens, UniProt P06493); test: Inhibition of CDK1/cyclinB (unknown origin); assay type: protein-complex assay
[31] = test system: HCT-116; test: Induction of apoptosis in human HCT116 cells assessed as increase in p53 gene expression by RT-PCR analysis relative to untreated control; assay type: functional
[32] = test system: HCT-116; test: Induction of apoptosis in human HCT116 cells assessed as increase in Bax gene expression by RT-PCR analysis relative to untreated control; assay type: functional
[33] = test system: HCT-116; test: Induction of apoptosis in human HCT116 cells assessed as up regulation of caspase-8 expression by RT-PCR analysis relative to untreated control; assay type: functional
[34] = Selectivity index, ratio of IC50 for human WI-38 cells to IC50 for human HCT116 cells after 48 hrs by MTT assay; assay type: toxicity; details: WI-38 cells versus HCT116 cells, read-out: Ratio IC50
[35] = read-out: LC50 (the source's name)

Chain of Cyclin-dependent kinase 1/cyclin B1 (P06493 whole entry): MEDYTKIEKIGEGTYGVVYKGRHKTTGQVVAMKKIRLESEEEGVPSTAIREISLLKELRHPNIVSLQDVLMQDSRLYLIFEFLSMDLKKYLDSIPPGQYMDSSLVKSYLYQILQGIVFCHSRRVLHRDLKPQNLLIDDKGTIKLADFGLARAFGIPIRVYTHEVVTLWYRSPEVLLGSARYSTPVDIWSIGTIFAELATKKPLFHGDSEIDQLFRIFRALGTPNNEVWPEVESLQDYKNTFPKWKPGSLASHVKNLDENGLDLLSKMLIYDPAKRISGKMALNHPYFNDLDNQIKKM
Chain of Cyclin-dependent kinase 1/cyclin B1 (P14635 whole entry, further chain): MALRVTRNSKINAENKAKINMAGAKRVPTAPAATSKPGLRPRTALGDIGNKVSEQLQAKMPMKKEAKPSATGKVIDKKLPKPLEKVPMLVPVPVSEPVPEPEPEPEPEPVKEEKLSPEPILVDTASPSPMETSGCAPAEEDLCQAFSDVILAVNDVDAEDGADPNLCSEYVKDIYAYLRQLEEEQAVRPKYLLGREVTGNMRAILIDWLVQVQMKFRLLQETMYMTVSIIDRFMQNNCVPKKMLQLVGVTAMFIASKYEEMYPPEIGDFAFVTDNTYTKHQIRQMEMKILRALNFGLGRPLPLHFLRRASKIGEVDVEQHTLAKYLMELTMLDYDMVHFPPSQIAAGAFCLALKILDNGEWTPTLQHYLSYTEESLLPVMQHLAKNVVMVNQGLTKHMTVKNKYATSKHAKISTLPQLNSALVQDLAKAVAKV

COc1ccc(-n2c(=S)sc3c(Cl)nc(C)nc32)c(OC)c1
inhibition at 10 µM [1]: > 50% | inhibition at 10 µM [2]: > 50% | inhibition at 10 µM [3]: > 50% | inhibition at 10 µM [4]: > 50% | inhibition at 10 µM [5]: > 50% | inhibition at 10 µM [6]: > 50% | inhibition at 10 µM [7]: > 50% | inhibition at 10 µM [8]: > 50% | inhibition at 10 µM [9]: > 50% | GI50 [10]: 1200 nM | TGI [10]: 3.8 µM | CC50 [10, 35]: > 100 µM | GI50 [11]: 2570 nM | TGI [11]: 7.76 µM | CC50 [11, 35]: 26.9 µM | GI50 [12]: 3.09 µM | TGI [12]: 9.12 µM | CC50 [12, 35]: 49 µM | GI50 [13]: 16.2 µM | TGI [13]: 30.9 µM | CC50 [13, 35]: 58.9 µM | GI50 [14]: 1950 nM | TGI [14]: 5.37 µM | CC50 [14, 35]: 41.7 µM | GI50 [15]: 2090 nM | TGI [15]: 4.57 µM | CC50 [15, 35]: 10 µM | GI50 [16]: 2400 nM | TGI [16]: 5.37 µM | CC50 [16, 35]: 17 µM | GI50 [17]: 2140 nM | TGI [17]: 3.89 µM | CC50 [17, 35]: 7.24 µM | GI50 [18]: 2040 nM | TGI [18]: 3.98 µM | CC50 [18, 35]: 7.76 µM | GI50 [19]: 4.68 µM | TGI [19]: 15.5 µM | CC50 [19, 35]: 41.7 µM | GI50 [20]: 14.1 µM | TGI [20]: 27.5 µM | CC50 [20, 35]: 52.5 µM | GI50 [21]: 4.47 µM | TGI [21]: 20.4 µM | CC50 [21, 35]: 81.3 µM | GI50 [22]: 2000 nM | TGI [22]: 4.07 µM | CC50 [22, 35]: 8.32 µM | GI50 [23]: 2820 nM | TGI [23]: 9.12 µM | CC50 [23, 35]: 36.3 µM | GI50 [24]: 4.68 µM | TGI [24]: 18.6 µM | CC50 [24, 35]: 58.9 µM | GI50 [25]: 3.16 µM | TGI [25]: 10.2 µM | CC50 [25, 35]: 34.7 µM | GI50 [26]: 2000 nM | TGI [26]: 6.61 µM | CC50 [26, 35]: 93.3 µM | GI50 [27]: 6.46 µM | TGI [27]: 21.9 µM | CC50 [27, 35]: 56.2 µM | IC50 [28]: 5.34 µM | Activity [29]: 6.1% | IC50 [30]: 97 nM | fold change (FC) [31]: 13.1 | fold change (FC) [32]: 9.9 | fold change (FC) [33]: 7.9 | selectivity ratio at 48 h [34]: 4
